Results on 21 molecules are retold here after patent US9181236B2, “2-spiro-substituted iminothiazines and their mono-and dioxides as bace inhibitors, compositions and their use” (Merck Sharp & Dohme Corp., priority 2011, dated 2015).

By Ki is commonly meant a measure of affinity in units of concentration, obtained from inhibition or displacement.

Assay [1] has as its target soluble human BACE1 catalytic domain (Homo sapiens (Human), UniProt P56817). The experiment in a line: BACE1 HTRF FRET Assay. Format: biochemical. The settings on record: Ki calculated from IC50 using the Cheng-Prusoff equation. From the text:
A homogeneous time-resolved FRET assay can be used to determine IC50 values for inhibitors of the soluble human BACE1 catalytic domain. This assay monitors the increase of 620 nm fluorescence that resulted from BACE1 cleavage of an APPswedish APP^swe mutant peptide FRET substrate (QSY7-[…]-Europium-amide). This substrate contains an N-terminal QSY7 moiety that serves as a quencher of the C-terminal Europium fluorophore (620 nm Em). In the absence of enzyme activity, 620 nm fluorescence is low in the assay and increased linearly over 3 hours in the presence of uninhibited BACE1 enzyme Inhibition of BACE1 cleavage of the QSY7-APP^swe-Eu substrate by inhibitors is manifested as a suppression of 620 nm fluorescence.
Reactions are initiated by addition of 10 μl of 600 nM QSY7-APP^swe-Eu substrate (200 nM final) to give a final reaction volume of 30 μl in a 384 well Nunc HTRF plate. The reactions are incubated at 30° C. for 1.5 hours. The 620 nm fluorescence is then read on a Rubystar HTRF plate reader (BMG Labtechnologies) using a 50 millisecond delay followed by a 400 millisecond acquisition time window Inhibitor IC50 values are derived from non-linear regression analysis of concentration response curves.

Assay [2] deals with purified human autoBACE-2 (Homo sapiens (Human), UniProt Q9Y5Z0). The experiment in a line: BACE-2 Assay (BACE-HTRF assay). The settings on record: Ki calculated from IC50 using the Cheng-Prusoff equation; read-out: BACE2 Ki. Format: biochemical. Here is the method:
Inhibitor IC50s at purified human autoBACE-2 are determined in a time-resolved endpoint proteolysis assay that measures hydrolysis of the QSY7-[…]-Eu-amide FRET peptide substrate (BACE-HTRF assay). […] DMSO is present at 5% final concentration in the assay. Following laser excitation of sample wells at 320 nm, the fluorescence signal at 620 nm is collected for 400 ms following a 50 μs delay on a RUBYstar HTRF plate reader (BMG Labtechnologies). Raw RFU data is normalized to maximum (1.0 nM BACE/DMSO) and minimum (no enzyme/DMSO) RFU values. […] The Ki values are calculated from the IC50 using the Cheng-Prusoff equation.

soluble human BACE1 catalytic domain, sequence (P56817 75-416): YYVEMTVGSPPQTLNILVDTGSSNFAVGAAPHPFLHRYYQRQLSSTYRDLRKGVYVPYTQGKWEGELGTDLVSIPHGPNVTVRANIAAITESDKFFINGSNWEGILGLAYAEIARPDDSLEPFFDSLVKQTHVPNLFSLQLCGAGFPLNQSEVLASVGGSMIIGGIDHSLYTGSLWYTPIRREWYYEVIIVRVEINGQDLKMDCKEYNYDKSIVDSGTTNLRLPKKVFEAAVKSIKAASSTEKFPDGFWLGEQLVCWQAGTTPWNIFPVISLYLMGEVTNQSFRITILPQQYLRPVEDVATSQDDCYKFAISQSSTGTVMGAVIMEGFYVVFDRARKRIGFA
purified human autoBACE-2, sequence (Q9Y5Z0 63-473 limits assumed): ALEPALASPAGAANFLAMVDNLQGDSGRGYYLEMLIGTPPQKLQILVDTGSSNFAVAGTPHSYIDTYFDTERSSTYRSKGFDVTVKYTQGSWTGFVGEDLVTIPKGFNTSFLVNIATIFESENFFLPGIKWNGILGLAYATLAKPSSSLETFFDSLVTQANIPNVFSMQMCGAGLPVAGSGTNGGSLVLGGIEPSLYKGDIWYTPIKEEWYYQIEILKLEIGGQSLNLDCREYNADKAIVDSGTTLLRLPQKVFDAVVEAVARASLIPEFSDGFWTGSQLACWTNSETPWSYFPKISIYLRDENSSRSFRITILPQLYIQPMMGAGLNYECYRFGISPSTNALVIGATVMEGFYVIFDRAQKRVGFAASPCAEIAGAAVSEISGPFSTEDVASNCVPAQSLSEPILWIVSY

As to `COc1cnc(C(=O)Nc2ccc(F)c([C@]3(C)CS(=O)(=O)C4(CCCC4)C(=N)N3)c2)cn1` [Example 17], the Ki in assay [1] was 3.6 nM; in assay [2], 1.5 nM.

With `C[C@@]1(c2cc(NC(=O)c3cn4ncsc4n3)ccc2F)CS(=O)(=O)C2(CCCC2)C(=N)N1` [Example 19], the Ki in assay [1] is 18.4 nM; in assay [2] it was less than 20 nM.

Consider `C[C@@]1(c2cc(NC(=O)c3cn4ccsc4n3)ccc2F)CS(=O)(=O)C2(CCCC2)C(=N)N1` [Example 20], for which the Ki in assay [1] is 82 nM; in assay [2], less than 20 nM.

As to `Cc1nc(C(=O)Nc2ccc(F)c([C@]3(C)CS(=O)(=O)C4(CCCC4)C(=N)N3)c2)no1` [Example 21], the values for the Ki in assay [1] and in assay [2] were 13.9 nM and 1.3 nM, respectively.

Take `C[C@@]1(c2cc(NC(=O)c3ccn(C(F)F)n3)ccc2F)CS(=O)(=O)C2(CCCC2)C(=N)N1` [Example 22]: the values for the Ki in assay [1] and in assay [2] were 12.7 nM and 4.3 nM, respectively.

As to `C[C@@]1(c2cc(NC(=O)c3cnsn3)ccc2F)CS(=O)(=O)C2(CCCC2)C(=N)N1` [Example 23], the Ki in assay [1] was 108 nM; in assay [2] it was 3.1 nM.

`C[C@@]1(c2cc(NC(=O)c3ccc(F)cn3)ccc2F)CS(=O)(=O)C2(CCCCC2)C(=N)N1` [Example 25]: the Ki was 32 nM in assay [1] and 4.4 nM in assay [2].

For the molecule `COc1ccc(C(=O)Nc2ccc(F)c([C@]3(C)CS(=O)(=O)C4(CCCCC4)C(=N)N3)c2)nc1` [Example 26], the values for the Ki in assay [1] and in assay [2] were 37 nM and less than 20 nM, respectively.

Turning to `COc1cnc(C(=O)Nc2ccc(F)c([C@]3(C)CS(=O)(=O)C4(CCCCC4)C(=N)N3)c2)cn1` [Example 27], the Ki in assay [1] is 36 nM; in assay [2], less than 50 nM.

As to `C[C@@]1(c2cc(NC(=O)c3ccc(C#N)cn3)ccc2F)CS(=O)(=O)C2(CCCCC2)C(=N)N1` [Example 28], the Ki in assay [1] was 10.6 nM; in assay [2], less than 20 nM.

On to `C[C@@]1(c2cc(NC(=O)c3ccc(C(F)(F)F)cn3)ccc2F)CS(=O)(=O)C2(CCCCC2)C(=N)N1` [Example 29], for which the Ki in assay [1] is 23.3 nM; in assay [2], less than 50 nM.

Turning to `C[C@@]1(c2cc(NC(=O)c3ccc(F)cn3)ccc2F)CS(=O)(=O)C2(CCOCC2)C(=N)N1` [Example 30], the figures for the Ki in assay [1] and in assay [2] were 10.9 nM and 2.1 nM, respectively.

On to `COc1cnc(C(=O)Nc2ccc(F)c([C@]3(C)CS(=O)(=O)C4(CCOCC4)C(=N)N3)c2)cn1` [Example 32], for which the Ki in assay [1] was 16.3 nM; in assay [2], less than 50 nM.

Regarding `C[C@@]1(c2cc(NC(=O)c3ccc(Cl)cn3)ccc2F)CS(=O)(=O)C2(CCOCC2)C(=N)N1` [Example 33], the values for the Ki in assay [1] and in assay [2] were 6.1 nM and 1.6 nM, respectively.

As for `C[C@@]1(c2cc(NC(=O)c3ccc(C(F)(F)F)cn3)ccc2F)CS(=O)(=O)C2(CCOCC2)C(=N)N1` [Example 34], the figures for the Ki in assay [1] and in assay [2] were 19.8 nM and less than 50 nM, respectively.

Regarding `COc1ccc(C(=O)Nc2ccc(F)c([C@]3(C)CS(=O)(=O)C4(CCOCC4)C(=N)N3)c2)nc1` [Example 35], the Ki in assay [1] was 16.4 nM; in assay [2], less than 20 nM.

With `C[C@@]1(c2sc(-c3cncc(C#N)c3)cc2Cl)CS(=O)(=O)C2(CCCC2)C(=N)N1` [Example 42], the Ki in assay [1] is 18.3 nM; in assay [2] it was 3.4 nM.

Turning to `COc1cccc2cc(-c3cc(Cl)c([C@]4(C)CS(=O)(=O)C5(CCCCC5)C(=N)N4)s3)[nH]c12` [Example 44], the figures for the Ki in assay [1] and in assay [2] were 20.2 nM and 2 nM, respectively.

Regarding `C[C@@]1(c2sc(-c3cccc(C#N)c3)cc2Cl)CS(=O)(=O)C2(CCCCC2)C(=N)N1` [Example 45], the Ki in assay [1] was 48 nM; in assay [2], less than 20 nM.

For the molecule `C[C@@]1(c2sc(-c3cncc(C#N)c3)cc2Cl)CS(=O)(=O)C2(CCCCC2)C(=N)N1` [Example 46], the Ki in assay [1] was 114 nM; in assay [2] it was less than 50 nM.

Take `C[C@@]1(c2sc(-c3cccc(-c4nnco4)c3)cc2Cl)CS(=O)(=O)C2(CCCCC2)C(=N)N1` [Example 47a]: the values for the Ki in assay [1] and in assay [2] were 35.9 nM and less than 50 nM, respectively.
